From ChEMBL document CHEMBL1141280, “Hirtusneanoside, an unsymmetrical dimeric tetrahydroxanthone from the lichen Usnea hirta” (2007)

How the values were obtained:
[1] = tested on: Bacillus subtilis; experiment: Antibacterial activity against Bacillus subtilis; assay type: functional; conditions: read-out: LD50 (the source's name)
[2] = tested on: Staphylococcus aureus; experiment: Antibacterial activity against Staphylococcus aureus; assay type: functional; conditions: read-out: LD50 (the source's name)

COC(=O)[C@@]12Oc3cc(C)c(-c4c(C)cc5c(c4O)C(=O)C4=C(O)C[C@@H](C)[C@@H](O)[C@@]4(CO[C@@H]4O[C@@H](C)[C@H](O)[C@@H](O)[C@H]4O)O5)c(O)c3C(=O)C1=C(O)[C@H](C)[C@@H](C)[C@@H]2O [HIRTUSNEANOSIDE]
LC50 [1]: 14 nM
LC50 [2]: 3.4 nM
